Where a name gives a salt, the structure may show the parent alone. Read-outs that look alike come from different tables or passages of the source.
Assays:
[1] = Solution stability in water for injection (WFI); format: physicochemical
[2] = XRPD crystal form after storage; format: physicochemical; settings: after 3 months at all conditions
Description: (§1) Various compounds disclosed herein have been placed on long-term solid-state stability protocol. The compounds were stored in glass vials closed with PTFE lined caps at 30° C./65% RH, 40° C./75% RH, 50° C. and 60° C. (ambient humidity). The results of the study after 4 weeks are shown in Table B1 and after 3 months in Table B2. Appearance and purity analysis were conducted using HPLC and XPRD. The HPLC analyses were conducted using standard equipment such as a Agilent HP1100 HPLC (Station ID: LZPES HPLC 04) with YMC-Pack ODS-AQ sub 3 μm, 150×4.6 mm Samples were prepared for XRPD by sprinkling ˜20 mg onto a Si wafer zero background plate and pressing the material flat to ensure the surface is smooth and level. The samples were analyzed according the equipment parameters below.

Enterococcus faecalis = assay: Broth microdilution MIC; format: cell-based
Description: (§2) Bacterial Isolates. Organisms tested in this study are listed in Table P. Clinical isolates consisted of 5 Staphylococcus aureus (MSSA), 3 Staphylococcus aureus (HA-MRSA), 2 Staphylococcus aureus (CA-MRSA), 2 Enterococcus faecalis (VSE), 2 Streptococcus pyogenes, and 2 Escherichia coli (susceptible to most antibiotics). S. aureus ATCC 29213, E. faecalis ATCC 29212, S. pneumoniae ATCC 49619, and E. coli ATCC 25922 were tested for the purposes of quality control.
(§3) Minimal Inhibitory Concentrations (MIC) values against the selected isolates were determined using the reference broth microdilution method according to the Clinical Laboratory Standards Institute (CLSI) guidelines.
(§4) The MIC was read and recorded as the lowest concentration of drug that inhibited visible growth of the organism.

Staphylococcus aureus = assay: Broth microdilution MIC; format: cell-based; settings: for MIC: Staphylococcus aureus, read-out: MIC
Description: as §2, §3, §4

Escherichia coli = assay: Broth microdilution MIC; format: cell-based; settings: Escherichia coli, read-out: MIC
Description: as §2, §3, §4

Streptococcus pneumoniae = assay: Broth microdilution MIC; format: cell-based; settings: ATCC49619, S. pneumoniae ATCC 49619, read-out: MIC
Description: as §2, §3, §4

Streptococcus pyogenes = assay: Broth microdilution MIC; format: cell-based
Description: as §2, §3, §4

[3] = Stability to gamma irradiation; format: physicochemical
Excerpt: There was no change in appearance and it remained partially crystalline over 1 month at all storage conditions.

[4] = Photostability of solid salts; format: physicochemical
S. aureus FabI = molecular target: T1, S. aureus FabI (Staphylococcus aureus, UniProt Q6GI75); assay: Inhibition of S. aureus FabI; format: biochemical
T1 sequence (Q6GI75 1-256): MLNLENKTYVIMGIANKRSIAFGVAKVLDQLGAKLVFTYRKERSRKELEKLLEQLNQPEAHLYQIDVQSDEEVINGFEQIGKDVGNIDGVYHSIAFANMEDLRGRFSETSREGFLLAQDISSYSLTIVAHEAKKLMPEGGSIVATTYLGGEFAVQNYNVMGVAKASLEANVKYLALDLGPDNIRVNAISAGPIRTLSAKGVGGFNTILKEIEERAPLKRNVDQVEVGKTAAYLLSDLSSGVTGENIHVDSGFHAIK

[5] = Solid-state stability (HPLC % area after storage); format: physicochemical
Description: as §1, with “mm” for “mm Samples were prepared for XRPD by sprinkling ˜20 mg onto a Si wafer zero background plate and pressing the material flat to ensure the surface is smooth and level. The samples were analyzed according the equipment parameters below.”

[6] = 1 mg/mL solution, 5° C., 4 hours
[7] = 1 mg/mL solution, 5° C., 24 hours
[8] = 1 mg/mL solution, 5° C., 48 hours
[9] = 1 mg/mL solution, −20° C., 48 hours
[10] = 25 mg/mL solution, 5° C., 4 hours
[11] = 25 mg/mL solution, 5° C., 24 hours
[12] = 25 mg/mL solution, 5° C., 48 hours
[13] = 25 mg/mL solution, RT, 24 hours
[14] = 25 mg/mL solution, RT, 48 hours
[15] = 25 mg/mL solution, −20° C., 48 hours

Cc1c(CN(C)C(=O)/C=C/c2cnc3c(c2)CCC(=O)N3COP(=O)(O)O)oc2ccccc12 [Compound 10, (E)-6-[(N-methyl-((3-methylbenzofuran-2-yl)methyl)amino)-3-oxoprop-1-en-1-yl)-2-oxo-3,4-dihydro-1,8-naphthyridin-1(2H)-yl]methylphosphate bis-ethanolammonium salt]
Solution stability [1, 6]: 0.96 mg/mL | Solution stability % Area [1, 6]: 99.4 % Area | Solution stability [1, 7]: 0.94 mg/mL | Solution stability % Area [1, 7]: 98.1 % Area | Solution stability [1, 8]: 0.96 mg/mL | Solution stability % Area [1, 8]: 98.1 % Area | Solution stability ([1]; 1 mg/mL solution, Initial): 0.97 mg/mL | Solution stability % Area ([1]; 1 mg/mL solution, Initial): 99.4 % Area | Solution stability ([1]; 1 mg/mL solution, RT, 4 hours): 0.94 mg/mL | Solution stability % Area ([1]; 1 mg/mL solution, RT, 4 hours): 99.0 % Area | Solution stability ([1]; 1 mg/mL solution, RT, 24 hours): 0.92 mg/mL | Solution stability % Area ([1]; 1 mg/mL solution, RT, 24 hours): 95.5 % Area | Solution stability ([1]; 1 mg/mL solution, RT, 48 hours): 0.64 mg/mL | Solution stability % Area ([1]; 1 mg/mL solution, RT, 48 hours): 92.1 % Area | Solution stability [1, 9]: 0.96 mg/mL | Solution stability % Area [1, 9]: 99.3 % Area | Solution stability [1, 10]: 25.0 mg/mL | Solution stability % Area [1, 10]: 99.3 % Area | Solution stability [1, 11]: 24.4 mg/mL | Solution stability % Area [1, 11]: 98.6 % Area | Solution stability [1, 12]: 23.1 mg/mL | Solution stability % Area [1, 12]: 98.0 % Area | Solution stability ([1]; 25 mg/mL solution, Initial): 24.05 mg/mL | Solution stability % Area ([1]; 25 mg/mL solution, Initial): 99.5 % Area | Solution stability ([1]; 25 mg/mL solution, RT, 4 hours): 23.9 mg/mL | Solution stability % Area ([1]; 25 mg/mL solution, RT, 4 hours): 98.8 % Area | Solution stability [1, 13]: 22.5 mg/mL | Solution stability % Area [1, 13]: 95.2 % Area | Solution stability [1, 14]: 22.8 mg/mL | Solution stability % Area [1, 14]: 91.5 % Area | Solution stability [1, 15]: 24.4 mg/mL | Solution stability % Area [1, 15]: 99.2 % Area | change in crystal form (XRPD) [2]: no change in crystal form | MIC (Enterococcus faecalis; ATCC29212, E. faecalis ATCC 29212, read-out: MIC): > 16 µg/mL | MIC (Enterococcus faecalis; E. faecalis 4158, VSE, read-out: MIC): > 16 µg/mL | MIC (Enterococcus faecalis; E. faecalis 4212, VSE, read-out: MIC): > 16 µg/mL | MIC (Staphylococcus aureus; ATCC29213, S. aureus ATCC 29213): 4 µg/mL | MIC (Staphylococcus aureus; MRSA, S. aureus 3083, HA-MRSA): 4 µg/mL | MIC (Staphylococcus aureus; MRSA, S. aureus 3086, HA-MRSA): 16 µg/mL | MIC (Staphylococcus aureus; MRSA, S. aureus 3265, HA-MRSA): 16 µg/mL | MIC (Staphylococcus aureus; MSSA, S. aureus 3104, MSSA): > 16 µg/mL | MIC (Staphylococcus aureus; MSSA, S. aureus 3107, MSSA): 8 µg/mL | MIC (Staphylococcus aureus; MSSA, S. aureus 3245, MSSA): 16 µg/mL | MIC (Staphylococcus aureus; MSSA, S. aureus 3250, MSSA): 8 µg/mL | MIC (Staphylococcus aureus; MSSA, S. aureus 3856, MSSA): 16 µg/mL | MIC (Staphylococcus aureus; S. aureus 2168, CAMRSA): 4 µg/mL | MIC (Staphylococcus aureus; S. aureus 2294, CAMRSA): 16 µg/mL | times less activity than Compound Z (Staphylococcus aureus; panel of 11 S. aureus strains): 500-4000 times | MIC (Escherichia coli; ATCC25922, E. coli ATCC 25922): > 16 µg/mL | MIC (Escherichia coli; E. coli 2214): > 16 µg/mL | MIC (Escherichia coli; E. coli 5255): > 16 µg/mL | MIC (Streptococcus pneumoniae): > 16 µg/mL | MIC (Streptococcus pyogenes; S. pyogenes 6528): >16 µg/mL | MIC (Streptococcus pyogenes; Streptococcus pyogenes, S. pyogenes 6179, read-out: MIC): > 16 µg/mL | stability to gamma irradiation exposure ([3]; 28.6-30.9 kGy): stable to gamma irradiation | stability to gamma irradiation ([3]; crystalline, 25 to 31 kGy): stable to gamma irradiation | Control % Area (Table C) ([4]; control sample at ambient lab conditions protected from light): 98.9 % Area | Photo-stability % Area ([4]; exposed to 60% of ICH minimum): 97.7 % Area | inhibition of S. aureus FabI (S. aureus FabI): no inhibition | Solid-state stability % Area ([5]; 3 months, 30° C./65% RH): 98.61 % Area | Solid-state stability % Area ([5]; 3 months, 40° C./75% RH): 92.75 % Area | Solid-state stability % Area ([5]; 3 months, 50° C./ambient humidity): 99.04 % Area | Solid-state stability % Area ([5]; 3 months, Control (ambient lab conditions protected from light)): 98.9 % Area | Solid-state stability % Area ([5]; 4 weeks, 30° C./65% RH): 98.5 % Area | Solid-state stability % Area ([5]; 4 weeks, 40° C./75% RH): 98.2 % Area | Solid-state stability % Area ([5]; 4 weeks, 50° C./ambient humidity): 99.3 % Area | Solid-state stability % Area ([5]; 4 weeks, 60° C./ambient humidity): 98.7 % Area | Solid-state stability % Area ([5]; 4 weeks, Control (ambient lab conditions protected from light)): 98.9 % Area | physical and chemical stability ([5]; over 3 months at 30° C./65% RH and 50° C., closed vials, light protected): physically and chemically stable

— patent US8901105B2, “Prodrug derivatives of (E)-N-methyl-N-((3-M ethylbenzofuran-2-yl)methyl)-3-(7-oxo-5,6,7,8-tetrahydro-1,8-naphthyridin-3-yl)acrylamide” (Affinium Pharmaceuticals, Inc., priority 2012, dated 2014)
